Columns and labels:
[1] = Cytotoxicity assay (AlamarBlue); format: cell-based, Human; conditions: human, A549 cells
Method: The cytotoxicity of the molecules was analyzed using the commercial kit AlamarBlue® (Invitrogen, Ref. DAL1025) according to the manufacturer’s instructions. Briefly, A549 cells were seeded at a density of 5 × 10^3 cells per well in 96-well plates, and decreasing serial dilutions of each molecule were diluted in 100 μL of DMEM starting at 200 μM. The cells were then incubated at 37°C for 48 h following the manufacturer’s protocol. The cytotoxic concentration 50% (CC50) value was obtained using the statistical software GraphPad Prism 6. The assay was performed in duplicate.

wild-type HAdV5 [2] = test: HAdV DNA quantification by qPCR; format: cell-based, human adenovirus (HAdV5); conditions: 10-fold IC50; A549; 24 h; vs DMSO control
Method: For DNA quantification, A549 cells (1.5 × 10^5 cells/well in a 24-well plate) were incubated for 24 h in 500 μL of complete DMEM and were infected with wild-type HAdV5 (MOI 100 vp/cell) after observing more than 90% of confluency. Infected cells were incubated for 24 h at 37°C in 500 μL of either complete DMEM containing 10-fold IC50 concentration of the compounds obtained in the plaque assay or the same volume of DMSO (positive control). All samples were prepared in duplicate. After 24 h of incubation at 37°C, DNA was purified from the cell lysate with the E.Z.N.A.® Tissue DNA Kit (Omega Bio-tek, Norcross, GA) following the manufacturer’s instructions. PCR conditions, primers, and probes were as described by [Henke-Gendo et al. (2012)]. Human glyceraldehyde-3-phosphate dehydrogenase (GAPDH) gene was used as an internal control. GAPDH oligonucleotide sequences and conditions were as previously described by [Rivera et al. (2004)].
For quantification, gene fragments from hexons, and GAPDH were cloned into the pGEM-T Easy vector (Promega) and known concentrations of the template were used to generate a standard curve in parallel for each experiment, as previously reported ([Sanchez-Cespedes et al., 2016]). All assays were performed in thermal cycler LightCycler® 96 System (Roche).

HAdV5-GFP = test: HAdV time of addition assay; format: cell-based, human adenovirus (HAdV5); conditions: 10-fold IC50
Method: The anti-HAdV effect of these natural compounds at different time-points was measured through a time-curve assay using 293β5 cells (3 × 10^4 cells/well in Corning black wall, clear bottom 96-well plates) infected with HAdV5-GFP (MOI 2,000 vp/cell) in the presence of 100 μL of complete DMEM containing 10-fold IC50 concentration of each comound obtained in the plaque assay for each compound or the same volume of DMSO (positive control). A standard infection curve was generated in parallel by infecting cells in the absence of compounds using 2-fold serial dilutions of the virus from an MOI of 2,000 vp/cell in order to extrapolate the GFP resulting from each molecule with its corresponding MOI.
Parallel samples of HAdV5 were incubated with or without the selected compounds on ice for 1 h. HAdV5 was then added to 293β5 cells and incubated at 37°C. Compounds were then added at the indicated time points until the last time point at 2 h. Then, the cells were incubated for an additional 48 h at 37°C and 5% CO2 before being analyzed for GFP expression using a Typhoon 9410 imager (GE Healthcare Life Sciences) and ImageQuantTL (GE Healthcare Life Sciences), as we described earlier.

HCMV = test: Impact on HCMV replication (qPCR of HCMV DNA in HFF); format: cell-based, human cytomegalovirus; conditions: 2-fold IC50 (HAdV plaque assay), 72 h
Method: To test the anti-HCMV activity of these rotenolone-related compounds, human foreskin fibroblasts (HFF; ATCC, Manassas, VA) were seeded in a 24-well plate (8.3 × 10^4 cells/well), infected with HCMV (MOI 0.05 vp/cell), and incubated in complete DMEM in the presence of either 2-fold IC50 concentration of each compound obtained in the plaque assay against HAdV or the same volume of DMSO (positive control) in duplicate. The cells were incubated for 72 h at 37°C and 5% CO2 and HCMV DNA was purified from the cell lysate using E.Z.N.A Tissue DNA Kit (Omega Biotek, Norcross, GA, USA) following the manufacturer’s instructions. The qPCR primers, conditions, and protocols were the same as previously reported ([Mazzotta et al., 2020b]).

wild-type HAdV5 [3] = test: HAdV/tubulin colocalization (confocal microscopy); format: cell-based, human adenovirus (HAdV5); conditions: 0.05 μM; 90 min after synchronized infection; A549
Method: The coverslips were previously washed with acetone, distilled water and absolute ethanol sequentially, and washed with 1x PBS, and treated with poly-L-lysine (Merck, Darmstadt, Germany) for 1 h, and washed again twice with 1x PBS. […] The infection was synchronized for 1 h on ice, excess virus was removed, and the cells were incubated for 90 min at 37°C and 5% CO2. Finally, the cells were fixed with methanol/acetone 50% for 10 min at −20°C whereupon nonspecific unions were blocked with PBS/BSA 10% for 1 h at room temperature. The cells were then incubated with hexon protein mouse monoclonal IgG (DSHB, Iowa City, USA) and anti-gamma-tubulin antibody marked by Alexa Fluor® 647 (Abcam, Cambridge, UK) for 60 min at room temperature. After rinsing with 1x PBS, the cells were incubated with Alexa Fluor 488 goat anti-mouse IgG (Thermo Fisher Scientific, MA, USA) for 20 min at room temperature, and DAPI (Merck) was added for 5 min to stain the nucleus. Finally, coverslips were fixed on the slides with a mounting medium prepared from one part of 10x PBS and 9 parts of glycerol and stored in the dark overnight at 4°C. […] The Z-series was analyzed by first determining the region of interest and then measuring the fluorescence signal using ImageJ.

HAdV-RFP = test: Direct interaction of rotenone with HAdV particles (pre-incubated virions, RFP expression); format: cell-based, human adenovirus (HAdV5); conditions: virions pre-incubated with 0.1 µM; 48 h; A549
Method: These treated virions were then added to A549 cells and incubated for 1 h on ice, to allow the HAdV particles to attach to the cells.

[4] = animals; ref Ray et al., 1991; Vats, 2018; Vats and Mehre, 2020; cited from earlier work

C=C(C)[C@H]1Cc2c(ccc3c2O[C@@H]2COc4cc(OC)c(OC)cc4[C@@H]2C3=O)O1 [Rotenone, (2R,6aS,12aS)-8,9-dimethoxy-2-(prop-1-en-2-yl)-1,2,12,12a-tetrahydrochromeno[3,4-b]furo[2,3-h]chromen-6-(6aH)-one]
CC50 at 48 h [1]: 600 ± 200 nM | HAdV DNA copy number (de novo synthesis) (wild-type HAdV5 [2]): significant decrease | time dependence of inhibitory activity (HAdV5-GFP; addition up to 2 h): sharp loss of inhibitory activity | loss of inhibitory activity (HAdV5-GFP; compound added at 10 min p.i.): more than 25% | loss of inhibitory activity (HAdV5-GFP; compound added at 40 min p.i.): more than 60% | inhibition of HCMV replication (HCMV): 92.1% | colocalization of HAdV particles with the tubulin (wild-type HAdV5 [3]): lower level of colocalization | level of RFP inhibition, cells incubated with vs without rotenone after attachment (HAdV-RFP): no differences | estimated lethal dose [4]: 300 to 500 mg/kg
